Test: gradient 5% acetonitrile 3 min, to 50% in 2 min, to 85% in 15 min, held 3 min, 100 µL/min
Details: column: Zorbax Extend-C18 2.1 x 50 mm; eluents: water / acetonitrile, 0.1% formic acid
In short: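 Data were gathered over 3 months by HPLC coupled to a quadrupole time-of-flight mass spectrometer, operated in positive and negative ionization mode. Mixtures of ~100 pure standards ran on a Zorbax Extend-C18 column (2.1 × 50 mm, 1.8 μm) at 100 μL/min, with water and acetonitrile each containing 0.1% formic acid and dead and dwell volumes of 40 μL and 900 μL. Retention time was read from adduct peaks picked by computer and checked manually.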

SMILES | RP-LC retention time [s]
CC(Oc1cccc(Cl)c1)C(=O)N1CCN(c2cc(-c3cccs3)[nH]n2)CC1 (stereo not drawn) | 888
CCOc1ccc2ncc(C(=O)c3ccc(C)cc3)c(N3CCN(C)CC3)c2c1 | 561
CC1=C(c2ccc(C)cc2)S(=O)(=O)N=C1N1CCCN(C(=O)c2ccco2)CC1 | 653
CCCS(=O)(=O)N1CCc2nc(N3CCN(C)CC3)sc2C1 | 764
OC1(c2ccccn2)CCOC2(CCN(Cc3ccc(Cl)cc3F)CC2)C1 (stereo not drawn) | 579
O=C(COc1ccc(Cl)cc1)Nc1c(-c2ccc(F)cc2)nc2ccccn12 | 744
O=C(NC12CC3CC(CC(C3)C1)C2)C1CCN(S(=O)(=O)c2cccs2)CC1 | 1070
Cc1ccc(C)c(C(=O)N2CCc3nc(-c4ccc(F)cc4)ncc3C2)c1 | 1060
CC(C)NC(=O)CN1C(=O)COc2ccc(C(=O)N3CCCCCC3)cc21 | 680
CCCCNC(=O)C1CCN(Cc2cn(C)c3ccc(Cl)cc23)CC1 | 667
COc1cccc(-c2nc(C3CCN(S(=O)(=O)c4cccc(C)c4)CC3)no2)c1 | 1150
Cc1cccn2cc(-c3cccc(S(=O)(=O)N4CCOCC4)c3)nc12 | 604
O=C(NCc1ccc(F)cc1)Nc1c(-c2ccc(F)cc2)nc2ccccn12 | 663
COc1cccc(NC(=O)c2c(C)oc3nc(C)nc(N4CCCC4)c23)c1 | 743
COCCCNC(=O)c1cccnc1N1CCNC(c2ccccc2)C1 (stereo not drawn) | 578
CSc1ccc(-c2noc(Cn3nc(-c4ccccc4)ccc3=O)n2)cc1 | 1040
Nc1c(C(=O)NCc2ccc3c(c2)OCO3)nsc1C(=O)N1CCN(c2ncccn2)CC1 | 850
COC(=O)c1cccc(C(=O)N2CCN(c3ccccc3F)CC2)n1 | 777
O=C(Nc1ccc(C(F)(F)F)cc1)C1CCN(S(=O)(=O)c2ccc3[nH]c(=O)sc3c2)CC1 | 924
CCNc1cc(N2CCC(CCC(=O)NCc3cc(F)cc(F)c3)CC2)ncn1 | 669
CCc1n[nH]c(CC2CCN(C(=O)C3(c4ccccc4)CC3)CC2)n1 | 608
Cc1ccc(NC(=O)C2CCN(C(=O)c3ncn4c3COC(c3ccc(F)cc3)C4)CC2)c(C)c1 (stereo not drawn) | 832

SMILES | RP-LC retention time [s]
COC(=O)c1ccc2c(=O)n(-c3ccccc3)c(N3CCSCC3)nc2c1 | 1030
CC(C)c1nc2ccc(C(=O)NCCN(C)C3CCCCC3)cc2o1 | 656
CC1(C(=O)NCc2ccccc2)Cn2c(ccc2-c2ccco2)C(=O)N1C1CC1 (stereo not drawn) | 810
CCOC(=O)C(Cc1c[nH]c2ccccc12)NC(=O)COc1ccc(Cl)cc1 (stereo not drawn) | 1010
CC(C)NC(=O)C1CCN(C(=O)c2cc(-c3ccncc3)n[nH]2)CC1 | 556
COc1cc(CN2CC(Oc3ccc(-c4noc(C5CC5)n4)cc3)C2)cc(OC)c1 | 772
CCCCCOC(=O)Nc1nc(=O)n(C2OC(C)C(O)C2O)cc1F (stereo not drawn) | 874
CN(C)c1ccc(/C=C2\SC(=O)N(CC(=O)Nc3ccccc3C(F)(F)F)C2=O)cc1 | 992
Cc1cc(=O)n(CC(=O)Nc2ccc(C(C)C)cc2)c(N2CCOCC2)n1 | 774
CCCCn1cc(S(=O)(=O)N2CCN(c3ccc(F)cc3)CC2)c2cccnc21 | 1120
Cc1ccc(N2CCn3c2nc2c3c(=O)n(CC(=O)O)c(=O)n2C)cc1 | 730
Cc1ccccc1NC(=O)N1CCC(N2CCN(Cc3ccccc3)C2=O)CC1 | 794
CNC(=O)c1ccsc1NC(=O)c1coc2ccccc2c1=O | 709
CCOc1cccc(C2CC(c3cccc(OC)c3)=NC3(CCN(C(C)C)CC3)N2)c1O (stereo not drawn) | 618
CCOc1ccc(N2C(=O)CC(c3ccc(OC)cc3)CC2=O)cc1 | 942
COCCC(=O)N1CCCn2cc(-c3cccc(C#N)c3)nc21 | 639
CC(C)(CO)NC(=O)Cc1ccc(NS(=O)(=O)c2ccccc2Br)cc1 | 664
CC(C)c1ccc(S(=O)(=O)N2CCc3c(c(-c4nnc(-c5ccccc5)o4)nn3C)C2)cc1 | 1110
COc1ccc2[nH]cc(CCNC(=O)c3cc4n(n3)CCCN(Cc3ccc(Cl)cc3)C4=O)c2c1 | 693
Cc1ccc(-c2cc3c(N4CCC(C(=O)NC5CCCC5)CC4)nccn3n2)c(C)c1 | 849
CCCn1c(-c2cccc(C(=O)NCCC3=CCCCC3)c2)nc2cccnc21 | 935
C=CCNC(=O)c1nc(C(=O)N2CCCCCC2)cs1 | 733

SMILES | RP-LC retention time [s]
CC(C)(C)c1ccc(NC(=O)CSc2ncn[nH]2)cc1 | 719
CCOc1ccc(C(=O)Nc2ccc3c(c2)Sc2ncccc2C(=O)N3C)cc1 | 826
COc1cc(CCc2cc(NC(=O)c3ccc(N4C[C@@H](C)N[C@@H](C)C4)cc3)n[nH]2)cc(OC)c1 | 687
Cc1ccc(C)c(NC(=O)Cc2nnc(-c3cnccn3)o2)c1 | 736
COCC(=O)N(CC(=O)N1CCc2sccc2C1COc1ccc(F)cc1)C(C)(C)C (stereo not drawn) | 906
CCCc1nnsc1C(=O)NCc1nc(C)no1 | 656
Cc1onc(-c2ccccc2Cl)c1C(=O)NCCn1nc(-c2ccccc2)n(C)c1=O | 708
CCOc1ccccc1NC(=O)CN1C(=O)C(C)(C)c2ccccc21 | 976
O=C(Cc1c(Sc2cccc(F)c2)[nH]c2ccccc12)N1CCN(c2ncccn2)CC1 | 975
CCc1nnc2c(=O)n(CC(=O)NC(C)c3ccccc3)c3cccnc3n12 (stereo not drawn) | 714
CCc1ccc(Oc2cc(N3CCC(C(=O)NCCCOC)CC3)ncn2)cc1 | 578
COC(=O)c1ccc(NS(=O)(=O)c2ccc(-c3c(C)noc3C)cc2)cc1 | 866
O=C(N[C@H]1C[C@@H]2C[C@H]1N(S(=O)(=O)c1cc(F)cc(F)c1)C2)c1cccs1 | 720
CCc1noc(NC(C)=O)c1-c1ccc(OC)c(S(=O)(=O)NCc2ccccc2C)c1 | 884
COCCC(=O)NC1CCN(C2=NS(=O)(=O)C(c3ccc(C)c(C)c3)=C2C)CC1 | 722
CN1CCn2cc(S(=O)(=O)Nc3ccc(F)cc3F)cc2C1=O | 671
CCS(=O)(=O)N1CC(=O)N(c2ccc(F)cc2C)C(C)(C(=O)NCc2ccc(F)cc2)C1 (stereo not drawn) | 832
Cc1ccc(-c2cn3c(CC(=O)NC4CCCCCC4)csc3n2)cc1C | 894
Cc1nc2nc(-c3ccc(C(C)(C)C)cc3)nn2c(C)c1CC(=O)N1CCc2ccccc2C1 | 1120
COc1ccc(OCc2nc(CCN(C)C(=O)c3ccco3)no2)cc1 | 782
Cc1ccc2nc(C(=O)NC3CCN(Cc4ccccc4)CC3)cn2c1 | 560
Cc1cccc(C(=O)N2C[C@@H](F)C[C@H]2C(=O)N2CCOCC2)c1 | 620

SMILES | RP-LC retention time [s]
CCCn1c(-c2cccc(C(=O)NCc3ccc(Br)cc3)c2)nc2cccnc21 | 875
CCc1cccc(NC(=O)Cn2ncc3c(N4CCN(c5ccccn5)CC4)ncnc32)c1 | 655
CCn1cc(C(=O)Nc2ccccc2F)c2cccnc21 | 812
Cc1cc2nn(CC(=O)Nc3ccc(F)cc3F)c(=O)n2c(Nc2ccc(C)c(F)c2)n1 | 1080
Cc1nc(-c2noc(-c3cccnc3)n2)cn1CC(=O)NC1CCCCC1 | 668
COc1ccc(N2CCN(c3ncc(C(=O)O)c(C)n3)CC2)cc1 | 713
O=C1CCc2cc(NC(=O)c3n[nH]c4ccccc34)ccc2N1 | 633
O=C(Nc1ccc(OCc2nnc(-c3ccc(Cl)cc3)o2)cc1)c1ccoc1 | 942
COc1cc(Cl)ccc1C(=O)N1CCN(c2cc(-c3ccc(Cl)cc3)[nH]n2)CC1 | 923
CCn1c(=O)c(C(=O)NCCN2CCc3ccccc3C2)nc2cccnc21 | 620
CC(C)NC(=O)CN1CCN(Cc2nc(-c3ccc(N4CCCC4)nc3)no2)CC1 | 541
C[C@H]1CN(C(=O)Nc2cc(F)cc(F)c2)C[C@@H]1c1nc(-c2ccncc2)no1 | 883
Cc1nc(-c2ccccc2F)sc1C(=O)N1CCCC1 | 880
CCn1cc(-c2nc(C)c(C(=O)N3CCc4ccccc4C3)s2)c2cccnc21 | 987
CCOc1ccc(C(=O)N2CCC3(C2)C(=O)N(C)c2ccccc23)cc1 (stereo not drawn) | 802
CCc1ccc(CNC(=O)C2CCN(C(=O)c3ncn4c3COC(c3ccc(C)cc3)C4)CC2)cc1 (stereo not drawn) | 853
NS(=O)(=O)c1ccc(CNC(=O)c2coc(NC(=O)c3cnccn3)n2)cc1 | 560
C=CCNC(=O)c1cn(-c2ccc(-c3nc(C(C)C)no3)cn2)cn1 | 824
Cc1cc(C)c(S(=O)(=O)N2CCCC2c2nc(-c3ccccc3C)no2)cc1C (stereo not drawn) | 1300
Clc1ccc(-c2nc(-c3ccc4c(c3)ncn4CCN3CCOCC3)no2)cc1 | 683
CCOc1ccc(OCCNC(=O)NC2CCCCC2)cc1 | 800
CC(C)NC(=O)c1ccc(OCC2CCN(C(=O)c3ccccc3Cl)CC2)cc1 | 820

— the METLIN SMRT retention time set (Domingo-Almenara et al. 2019)
